This is an account of results in ChEMBL document CHEMBL3785074, “Molecular modeling and snake venom phospholipase A2 inhibition by phenolic compounds: Structure-activity relationship” (Eur J Med Chem, 2016).

The nature of data set [1]: Protective activity against Daboia russellii venom-induced mortality by measuring venom LD50 in Swiss albino mouse at 100 mmol, iv preincubated with venom for 1 hr followed by administration to mouse measured after 24 hrs (reference value: 2.28 ug). The format is functional, Daboia russelii.
A short description of data set [2]: Protective activity against Daboia russellii venom-induced mortality in Swiss albino mouse at 100 mmol, iv preincubated with venom for 1 hr followed by administration to mouse measured after 24 hrs relative to untreated control. The class given is functional, Daboia russelii.
A short description of data set [3]: Protective activity against Naja kaouthia venom-induced mortality in Swiss albino mouse at 100 mmol, iv by measuring venom LD50 preincubated with venom for 1 hr followed by administration to mouse measured after 24 hrs (reference value: 2.82 ug). The class given is functional.
A short description of data set [4]: Protective activity against Naja kaouthia venom-induced mortality in Swiss albino mouse at 100 mmol, iv preincubated with venom for 1 hr followed by administration to mouse measured after 24 hrs relative to untreated control. The class given is functional.
Data set [5] is described as follows: Protective activity against Daboia russellii venom-induced hemorrhage in intradermally dosed Swiss albino mouse at 100 mmol assessed as hemorhagic lesion by measuring minimal […] dose preincubated with venom for 1 hr followed by administration to mouse measured after 24 hrs (reference value: 5 ug). The format is functional, Daboia russelii.
A short description of data set [6]: Protective activity against Daboia russellii venom-induced hemorrhage in intradermally dosed Swiss albino mouse at 100 mmol assessed as hemorhagic lesion preincubated with venom for 1 hr followed by administration to mouse measured after 24 hrs relative to untreated control. The format is functional, Daboia russelii.
Data set [7] in a line: Protective activity against Daboia russellii venom-induced mortality in Swiss albino mouse at 100 mmol, iv by measuring venom LD50 administered immediately after venom injection measured after 24 hrs (reference value: 2.28ug). The class given is functional, Daboia russelii.
Data set [8] in a line: Protective activity against Daboia russellii venom-induced mortality in Swiss albino mouse at 100 mmol, iv administered immediately after venom injection measured after 24 hrs relative to untreated control. The class given is functional, Daboia russelii.
A short description of data set [9]: Protective activity against Naja kaouthia venom-induced mortality in Swiss albino mouse at 100 mmol, iv by measuring venom LD50 administered immediately after venom injection measured after 24 hrs (reference value: 2.82 ug). The class given is functional.
A short description of data set [10]: Protective activity against Naja kaouthia venom-induced mortality in Swiss albino mouse at 100 mmol, iv administered immediately after venom injection measured after 24 hrs relative to untreated control. The format is functional.
Data set [11] in a line: Protective activity against Daboia russellii venom-induced hemorrhage in Swiss albino mouse at 100 mmol, iv assessed as hemorhagic lesion by measuring […] administered immediately after venom injection measured after 24 hrs (Rvb =5 ug). The class given is functional, Daboia russelii.
A short description of data set [12]: Protective activity against Daboia russellii venom-induced hemorrhage in Swiss albino mouse at 100 mmol, iv assessed as hemorhagic lesion administered immediately after venom injection measured after 24 hrs relative to untreated control. The class given is functional, Daboia russelii.
Data set [13] concerns Naja kaouthia. The data set is described as follows: Protective activity against Naja kaouthia venom-induced mortality in iv dosed Swiss albino mouse assessed as administered 30 to 60 mins after venom injection. The format is functional, organism-based.
Data set [14] can be described thus: Protective activity against Daboia russellii venom-induced defibrinogenation in iv dosed Swiss albino mouse assessed as venom level causing blood coagulation at 100 mmol preincubated with venom for 1 hr followed by administration to mouse relative to untreated. The class given is functional, Daboia russelii.
The nature of data set [15]: Protective activity against Daboia russellii venom-induced defibrinogenation in iv dosed Swiss albino mouse assessed as blood coagulation at 100 mmol administered immediately after venom injection relative to untreated control. The format is functional, Daboia russelii.
For data set [16], the system named is Daboia russelii. The data set is described as follows: Protective activity against Daboia russellii venom-induced coagulation in goat plasma assessed as increase in plasma recalcification time at 20 mmol preincubated with venom for 1 hr followed by plasma addition. The format is functional, cell-free.
The nature of data set [17]: Protective activity against Daboia russellii venom-induced defibrinogenation in iv dosed Swiss albino mouse assessed as venom level causing blood coagulation at 100 mmol preincubated with venom for 1 hr followed by administration to mouse (reference value: 2.5 ug). The format is functional, Daboia russelii.
The nature of data set [18]: Protective activity against Daboia russellii venom-induced defibrinogenation in iv dosed Swiss albino mouse assessed as venom level causing blood coagulation at 100 mmol administered immediately after venom injection (reference value: 2.5 ug). The class given is functional, Daboia russelii.
Data set [19] in a line: Lipophilicity, log P of compound. The class given is physicochemical. Particulars: octanol/water; read-out: logP.
The subject of data set [20] is Daboia russelii. The data set is described as follows: Protective activity against Daboia russellii venom-induced mortality in iv dosed Swiss albino mouse administered immediately after venom injection relative to untreated control. The format is functional, organism-based.
Data set [21] is described as follows: Protective activity against Daboia russellii venom-induced mortality in iv dosed Swiss albino mouse administered 30 mins after venom injection relative to untreated control. The format is functional, Daboia russelii.
Data set [22] is described as follows: Protective activity against Daboia russellii venom-induced mortality in iv dosed Swiss albino mouse administered 60 mins after venom injection relative to untreated control. The format is functional, Daboia russelii.

Calls of active or inactive are those of the source. No cut-off for these calls is given here.

As for `CCCCOc1ccc(C=O)c(O)c1`, the LD50 in data set [1] is 18 µg; in data set [3], 6 µg; in data set [7], 150 µg; in data set [9] it was 10 µg. The “fold change (FC)” value in [2] is recorded as 8; in data set [4], 2.1; in data set [6], 8; in data set [8], 3.75; in data set [10], 2; in [12], 2. The “fold change (FC)” value in data set [14] was 2.4; in data set [15], 1.5. Further, the MHC in data set [5] turned out to be 140 µg; in [11] it was 10 µg. Further, the result in data set [13] was inactive. Further, in data set [16], the outcome was Active. Further, the Activity in data set [17] amounted to 6 µg; in [18], 3.5 µg.
As usually defined, the logP is the decadic logarithm of the partition coefficient of the neutral form, usually between octanol and water. Regarding `COc1ccc(C=O)c(OC)c1`, the LD50 in data set [1] was 22 µg; in data set [3], 9 µg; in [7], 100 µg; in data set [9], 8 µg. Besides, the “fold change (FC)” value came to 9.8 in [2]; 3.2 in data set [4]; 5 in data set [6]; 2.5 in data set [8]; 1.6 in [10]; 2 in [12]. Besides, the MHC in [5] was determined as 25 µg; in data set [11] it was 10 µg. Besides, in [19], the logP came to 0.97. For the same compound, the result in data set [20] was Active. The compound also returned an Activity in data set [21] of 40%.
Take `COc1ccc(CO)c(O)c1`: the LD50 amounted to 22 µg in data set [1], 9 µg in [3], 150 µg in [7] and 10 µg in [9]. Further, the “fold change (FC)” value in data set [2] was 9.8; in data set [4] it was 3.2; in [6], 6; in [8], 3.75; in [10] it was 2; in data set [12] it was 1. Also, the “fold change (FC)” value in [14] was determined as 10; in [15], 1.5. The MHC in data set [5] stood at 30 µg; in [11] it was 5 µg. In addition, the result in data set [20] and in data set [16] was Active. Further, the Activity in data set [21] turned out to be 40%; in [22] it was 10%; in [17] it was 25 µg; in data set [18] it was 3.5 µg. Further, the outcome in data set [13] was inactive.
Regarding `C=CCOc1ccc(C=O)c(O)c1`, the LD50 in data set [1] worked out at 22 µg; in data set [3], 9 µg; in data set [7], 150 µg; in [9] it was 10 µg. Further, the “fold change (FC)” value in data set [2] stood at 9.8; in data set [4], 3.2; in data set [6], 10; in data set [8], 3.75; in data set [10] it was 2; in [12], 2. Besides, the “fold change (FC)” value in data set [14] came out at 2; in [15] it was 1.5. Also, the MHC turned out to be 50 µg in data set [5] and 10 µg in [11]. In addition, the outcome in data set [20] and in [16] was Active. Moreover, the Activity in data set [21] was 40%; in [17], 5 µg; in [18], 3.5 µg. Also, the outcome in data set [13] was inactive.
